Molecular target: 456 kinases (of these 395 non-mutant kinases) (Homo sapiens, UniProt Q5S007, G2019S)
Assay: Kinase Profiling (KINOMEscan)
Type: binding
Conditions: LRRK2(G2019S); 10 μM

Compound: CCc1ccccc1NC(=O)c1c(C)nsc1Nc1cnc2cc(F)ccc2n1 [Example 20, N-(2-Ethylphenyl)-5-[(6-fluoroquinoxalin-2-yl)amino]-3-methyl-1,2-thiazole-4-carboxamide]
- % Ctrl @ 10 μM: 92 % Ctrl
